The record followed here is patent US5486528A, “Basic ethers and process for the preparation thereof” (Egis Gyogyszergyar Rt., priority 1993, dated 1996).

Read-outs that look alike come from different tables or passages of the source. Where only a bound is given, the exact number is not on record here.

Series [1] relates to mice. In words: Effect on the spontaneous motor activity (Borsy), sedative effect. It is filed as in vivo, mouse. The following applies: for ED50: Mus musculus, po, 0.5 h, read-out: ID50, spontaneous motor activity. Here is the method: 2.1. Effect on the spontaneous motor activity
The test was carried out according to the method of Borsy et al. Groups consisting of 3 mice each were treated orally with different doses of the compounds to be tested. Then the test animals were placed into a 10-channel Dews system equipment. In this equipment the number of interruptions of infrared beam within 30 minutes was counted. […] Int. Pharmacodyn. 124, 1 (1960)].

For series [2], the system named is Male Wistar rats. Kind of series: Conditioned avoidance response inhibition, antipsychotic effect. The following applies: rat, 30 mg/kg p.o.; ++ = p < 0.05. Format: in vivo, rat (Wistar). Here is the method:
Conditioned avoidance response inhibition
The antipsychotic (neuroleptic) effect was measured by the inhibition of the learned conditioned avoidance reflex. The male Wistar rats, used for the study, were of 120-150 g body weight at the commencement of learning. A shuttle box was used as experimental device; it consists of two parts, 24×24.5×23 cm each, separated by a wall with a 6×9 cm gate. In response to a sutiable warning stimulus, in order to avoid the punishing (unconditioned) stimulus, animals within the box passed through the gate from one part to the other. The warning, i.e. conditioned stimulus (CS), a white light (1 Hz) blinking for 15 seconds, was applied at the place of the actual animal existence. The unconditioned stimulus (US), in form of 0.6 mA intensity electric shock, was randomly applied to the paw during the last 5 seconds of the conditioned stimulus. The animal's movement during the CS and US from one part of the box to the other, was defined as avoidance and escape responses, respectively. Both responses ceased the actual stimulus and stopped the trial. The time elapsed until the next trial (intertrial interval, ITI) was 15 seconds. While one experiment was carried out daily, an experiment consisted of 80 trials. Learning efficiency was expressed as percentage of the successful to the total avoidances. Effect of the neuroleptic drugs was examined in animals with stabilized conditioned reflexes and with at least 75% learning efficiency. Dosing was carried out once a week, one hour before the measurement in the shuttle box. To calculate the neuroleptic effect (50% inhibiting dose, ID50) , results obtained after the treatment were compared to those obtained on the previous day (controls).

Series [3] deals with Male Wistar rats. In words: Vogel test (drinking conflict test), anxiolytic effect. Format: in vivo, rat (Wistar). The following applies: ip, 0.5 h; rat, intraperitoneally, half an hour before testing; read-out: MED (minimum effective dose), Vogel test. Here is the method: 1.1. Vogel test (drinking conflict test)
The anxiolytic effect was tested by using the method of Vogel et al. Male Wistar rats of 160 to 180 g body weight were kept free of food and drinking water for 24 and 48 hours, respectively. Test and carrier substances were administered intraperitoneally half an hour before testing. Animals within the experimental chamber were provided with drinking water through an inserted tube. After the animals' each twenty lapping for water the device emitted a 2 mA intensity electric shock through the drinking tube. During 5 minutes the shocks tolerated by the animals in order to quench their thirst were counted. The effect of treatment was expressed as the % increase of the tolerated shocks. The minimum effective dose (MED) was determined for each test compound [Volge, J. R., Beer, B., Clody, D. E.: Psychopharmacologia (Berl.) 21, 1 (1971)].

Series [4] is described as follows: Acute toxicity on mice (Litchfield and Wilcoxon). As to conditions: mouse, in vivo, ip.
Series [5] in a line: Acute toxicity on mice (Litchfield and Wilcoxon). As to conditions: mouse, in vivo, po. As to the method: The test was carried out according to the method of Litchfield and Wilcoxon [Litchfield, J. T. and Wilcoxon, F. W.: J. Pharmacol. Exp. Ther., 96, 99 (1949)] by using white mice belonging to the CFLP strain and weighing 10 to 22 g, 10 animals per dose. The test compounds were administered orally in a volume of 20 cm^3 /kg.

Series [6] concerns gastric-acid secretion. In words: Gastric-acid-secretion test (Shay). It is filed as in vivo, rat. The following applies: po, read-out: Acid-secretion inhibition, ED50. As to the method: 2. […] The liberated gastric-acid content was determined by titration 4 hours after the ligature of the duodenum.
The subject of series [7] is erosion of the stomach wall. In words: Cytoprotective effect, ethanol erosion (Robert). Format: in vivo. As to conditions: rat; for ED50: po; for Ratio of acid-secretion inhibition and erosion inhibition: ratio of ED50 values. As to the method: 3. The cytoprotective effect was determined according to the method of Robert [Robert, A.: Cytoprotection by prostaglandins. […] Rats weighing 200 to 250 g were used as test animals. 1 cm^3 of abs. ethanol was introduced to the stomach to produce an erosion of the stomach wall. The length and frequency of the lesions (erosion index and frequency) were measured and the percentage inhibition of lesion formation compared with vehicle-treated animals was calculated.

The target of series [8] is T1, H^+ /K^+ -ATP-ase (Sus scrofa, UniProt P19156).
T1 construct: on partially purified pig's microsome specimen; from tissue; host or cells: pig stomach, partially purified microsomes
Kind of series: H+/K+-ATP-ase inhibition on partially purified pig's microsome specimen. It is filed as biochemical. As to the method:
1. H^+ /K^+ -ATP-ase inhibition on pig's stomach
The test was carried out according to the method of Rabon and Sachs [E. C. Rabon et al.: Preparation of gastric H^+ K^+ -ATP-ase, Methods in Enzymology, 157, 649-651 (1988)]. The activity of the prepared enzyme was measured both in the presence as in the absence of K^+ ions. The difference in the libaration of phosphorus representing the activity of the enzyme was measured.

[9] abbreviates: rat, p.o., 4 hours after ligature.

T1 sequence (P19156 2-1034 limits assumed): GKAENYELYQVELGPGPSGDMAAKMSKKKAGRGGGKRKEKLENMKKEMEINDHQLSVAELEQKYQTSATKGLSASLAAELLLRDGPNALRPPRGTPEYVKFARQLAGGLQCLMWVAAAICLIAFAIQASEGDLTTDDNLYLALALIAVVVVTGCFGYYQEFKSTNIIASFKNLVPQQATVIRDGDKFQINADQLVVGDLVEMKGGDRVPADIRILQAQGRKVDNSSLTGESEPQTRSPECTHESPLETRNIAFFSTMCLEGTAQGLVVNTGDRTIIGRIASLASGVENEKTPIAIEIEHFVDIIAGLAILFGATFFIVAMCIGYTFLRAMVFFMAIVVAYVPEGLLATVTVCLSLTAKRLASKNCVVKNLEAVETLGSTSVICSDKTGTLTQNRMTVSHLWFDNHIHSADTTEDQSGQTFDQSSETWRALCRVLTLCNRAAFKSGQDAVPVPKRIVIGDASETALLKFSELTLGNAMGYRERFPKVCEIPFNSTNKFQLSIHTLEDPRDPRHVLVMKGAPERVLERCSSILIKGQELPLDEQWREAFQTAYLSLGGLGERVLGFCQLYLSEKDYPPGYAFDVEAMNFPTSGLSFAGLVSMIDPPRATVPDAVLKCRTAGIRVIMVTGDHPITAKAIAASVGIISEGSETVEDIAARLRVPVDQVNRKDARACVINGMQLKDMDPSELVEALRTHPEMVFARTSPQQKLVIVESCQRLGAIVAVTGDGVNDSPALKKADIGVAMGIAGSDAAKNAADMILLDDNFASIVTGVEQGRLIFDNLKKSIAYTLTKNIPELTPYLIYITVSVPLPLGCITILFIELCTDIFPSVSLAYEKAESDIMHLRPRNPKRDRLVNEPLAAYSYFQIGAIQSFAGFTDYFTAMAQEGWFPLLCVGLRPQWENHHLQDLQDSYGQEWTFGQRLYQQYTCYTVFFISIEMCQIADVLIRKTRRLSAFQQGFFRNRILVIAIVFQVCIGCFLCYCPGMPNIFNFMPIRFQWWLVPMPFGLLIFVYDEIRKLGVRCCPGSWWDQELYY
T1 sequence (P18434 whole entry partner): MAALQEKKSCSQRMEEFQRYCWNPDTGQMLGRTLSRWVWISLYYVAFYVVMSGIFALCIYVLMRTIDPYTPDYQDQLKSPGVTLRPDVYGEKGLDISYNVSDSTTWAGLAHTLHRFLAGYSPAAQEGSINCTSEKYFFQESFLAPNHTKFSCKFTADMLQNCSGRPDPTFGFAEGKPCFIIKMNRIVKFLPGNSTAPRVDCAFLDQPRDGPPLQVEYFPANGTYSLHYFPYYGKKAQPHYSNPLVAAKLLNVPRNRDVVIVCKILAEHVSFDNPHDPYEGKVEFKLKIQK

For the compound `CCC(/C=C/c1ccccc1)=N\OCC(C)CN(C)C` (racemic) [Example 18, (R,S)-1-Phenyl-3-(E)-[3-(dimethylamino)-2-methylpropoxyimino]-1-(E)-pentene], in series [1] (mice, orally, 100 mg/kg), the “inhibition of spontaneous motor activity at 100 mg/kg” value came out at 54%. For the same compound, in series [2], the “Inhibition of the conditioned reflex (%)” value was 12%. In addition, the minimal effective dose in series [3] was 1 mg/kg.

As for `CCC(/C=C/c1ccc(Cl)cc1)=N\OCC(C)CN(C)C` (racemic) [Example 19, (R,S)-1-(4-Chlorophenyl)-3-(E)-[3-(dimethylamino)-2-methylpropoxyimino]-1-(E)-pentene], in series [1] (mice, orally, 30 minutes), the ED50 was greater than 100 mg/kg. In addition, in series [2], the “Inhibition of the conditioned reflex (%)” value is given as 19%. Moreover, the minimal effective dose in series [3] was determined as 10 mg/kg.

Regarding `CC(C)CCC(/C=C/c1ccc(Cl)cc1)=N\OCC(O)CNC1CCCCC1` (racemic) [Example 36, (R,S)-1-(4-Chlorophenyl)-6-methyl-3-(E)-[3-(cyclohexylamino)-2-hydroxypropoxyimino]-1-(E)-heptene], the LD50 (commonly the dose expected to kill half of the subjects tested) at 336 h in series [4] (mice, 14 days observation) was 30 to 100 mg/kg; in series [5] (mice, 14 days observation) it was greater than 1000 mg/kg.

With `CC(C)CCC(/C=C/c1ccc(Cl)cc1)=N\OCC(O)CN1CCCCC1` (racemic) [Example 37, (R,S)-1-(4-Chlorophenyl)-6-methyl-3-(E)-[2-hydroxy-3-(1-piperidinyl)-propoxyimino]-1-(E)-heptene], the ED50 in series [6] (setting [9]) lay in the range of 30 to 100 mg/kg; in series [7] (1 cm^3 abs. ethanol), 3 to 10 mg/kg. Also, the values for the LD50 at 336 h in series [4] and in series [5] were 100 to 300 mg/kg and greater than 1000 mg/kg, respectively. Besides, in series [7] (p.o.), the “Ratio of acid-secretion inhibition and erosion inhibition” value is recorded as greater than 10. Moreover, the half-inhibitory concentration (IC50) (as a rule, the midpoint of a concentration-inhibition curve) in series [8] is 21 µM.

`CNC1=Nc2ccc(Cl)cc2C(c2ccccc2)=[N+]([O-])C1` [Chlorodiazepoxide, reference compound]: the ED50 in series [1] (mice, orally, 30 minutes) was 56 mg/kg.

For `CN/C(=N/CCSCc1nc[nH]c1C)NC#N` [Cimetidine, reference compound], the ED50 in series [6] (Rattus norvegicus, 4 h) was 59.1 mg/kg; in series [7] (1 cm^3 abs. ethanol), 100 to 200 mg/kg. Also, in series [7] (p.o.), the “Ratio of acid-secretion inhibition and erosion inhibition” value is on record as 0.3-0.6.

Regarding `CN1C(=O)CN=C(c2ccccc2)c2cc(Cl)ccc21` [Diazepam, reference compound], the ED50 in series [1] amounted to 23 mg/kg.

On to `CCCC(/C=C/c1ccccc1)=N\OCCN(CC)CC` [Example 1, 1-Phenyl-3-(E)-[2-(diethylamino)-ethoxyimino]-1-(E)-hexene], for which the ED50 in series [1] (mice, orally, 30 minutes) was greater than 100 mg/kg. Further, in series [2], the “Inhibition of the conditioned reflex (%)” value is given as 10%. Also, the minimal effective dose in series [3] was 30 mg/kg.

Regarding `CCCCCCC(/C=C/c1ccc(Cl)cc1)=N\OCCN1CCCCC1` [Example 3, 1-(4-Chlorophenyl)-3-(E)-[2-(N-piperidinyl)-ethoxyimino]-1-(E)-nonene], the ED50 in series [6] (setting [9]) is 50 to 150 mg/kg; in series [7] (1 cm^3 abs. ethanol), 2.5 mg/kg. Besides, the LD50 at 336 h in series [4] lay in the range of 100 to 300 mg/kg; in series [5] it was 500 to 1000 mg/kg. For the same compound, the “Ratio of acid-secretion inhibition and erosion inhibition” value in series [7] (p.o.) is greater than 20. It took 10 µM to reach half-maximal inhibition in series [8] (IC50).

For `CC(C)CCC(/C=C/c1ccccc1)=N\OCCCN(C)C` [Example 5, 1-Phenyl-6-methyl-3-(E)-[3-(dimethylamino)-propoxyimino]-1-(E)-heptene], the ED50 in series [1] (mice, orally, 30 minutes) is greater than 100 mg/kg. Further, in series [2], the “Inhibition of the conditioned reflex (%)” value turned out to be 16%. Moreover, in series [3], the minimal effective dose is greater than 30 mg/kg.

`CCC(/C=C/c1ccc(Cl)cc1)=N\OCCN(C)C` [Example 7, 1-(4-Chlorophenyl)-3-(E)-[2-(dimethylamino)-ethoxyimino]-1-(E)-pentene]: in series [1] (mice, orally, 30 minutes), the ED50 is greater than 100 mg/kg. Besides, the “Inhibition of the conditioned reflex (%)” value in series [2] is 22%. For the same compound, in series [3], the minimal effective dose is 3 mg/kg.

Turning to `CC(C)CCC(/C=C/c1ccc(Cl)cc1)=N\OCCCN(C)C` [Example 13, 1-(4-Chlorophenyl)-6-methyl-3-(E)-[3-(dimethylamino)-propoxyimino]-1-(E)-heptene], the ED50 in series [1] (mice, orally, 30 minutes) is greater than 100 mg/kg. Further, in series [2], the “Inhibition of the conditioned reflex (%)” value was found to be 12%. Moreover, the minimal effective dose in series [3] was greater than 30 mg/kg.

As for `CCC(/C=C/c1ccccc1)=N\OCCN(C)C` [Example 14, 1-Phenyl-3-(E)-[2-(dimethylamino)-ethoxyimino]-1-(E)-pentene], the ED50 in series [1] (mice, orally, 30 minutes) is greater than 100 mg/kg. Also, the “Inhibition of the conditioned reflex (%)” value in series [2] was 18%. Also, in series [3], the minimal effective dose came to 10 mg/kg.

For `CC(C)CCC(/C=C/c1ccc(Cl)cc1)=N\OCCN(C)C` [Example 15], the ED50 in series [1] (mice, orally, 30 minutes) is greater than 100 mg/kg. In series [2], the “Inhibition of the conditioned reflex (%)” value came out at 11%. The minimal effective dose in series [3] worked out at 3 mg/kg.

`CC(C)CCC(/C=C/c1ccc(Cl)cc1)=N\OCCCN1CCCCCC1` [Example 35, 1-(Chlorophenyl)-6-methyl-3-(E)-[3-(hexahydro-1-H-azepinyl)-propoxyimino]-1-(E)-heptene]: the LD50 at 336 h in series [4] is 30 to 100 mg/kg; in series [5], greater than 1000 mg/kg.

As for `CC(C)CCC(/C=C/c1ccc(F)cc1)=N\OCCCN1CCCCC1` [Example 38, 1-(4-Fluorophenyl)-6-methyl-3-(E)-[3-(N-piperidinyl)-propoximino]-1-(E)-heptene], the values for the ED50 in series [6] (setting [9]) and in series [7] (1 cm^3 abs. ethanol) were 37.7 mg/kg and 1.3 mg/kg, respectively. Besides, the LD50 at 336 h in series [4] lay in the range of 100 to 300 mg/kg; in series [5], 500 to 1000 mg/kg. For the same compound, the “Ratio of acid-secretion inhibition and erosion inhibition” value in series [7] (p.o.) was found to be 29.0. Also, half-maximal inhibition in series [8] (IC50) was put at 17 µM.

For `CC(C)CCC(/C=C/c1ccc(Cl)cc1)=N/OCCC1CCCN1C` (stereo not shown) [Example 40, 1-(4-Chlorophenyl)-6-methyl-3-(Z)-[2-(2-N-methylpyrrolidinyl)-ethoxyimino]-1-(E)-heptene], the ED50 in series [6] (setting [9]) was less than 100 mg/kg; in series [7] (1 cm^3 abs. ethanol), 0.9 mg/kg. For the same compound, the figures for the LD50 at 336 h in series [4] and in series [5] were 100 to 300 mg/kg and 1000 mg/kg, respectively. The “Ratio of acid-secretion inhibition and erosion inhibition” value in series [7] (p.o.) is less than 100. In series [8], this compound returned a half-maximal inhibitory concentration (IC50) of 10 µM.

Turning to `CC(C)CCC(/C=C/c1ccc(Br)cc1)=N\OCCCN1CCCCC1` [Example 42, 1-(4-Bromophenyl)-6-methyl-3-(E)-[(3-N-piperidinyl)-propoxyimino]-1-(E)-heptene], the LD50 at 336 h in series [4] is 100 to 300 mg/kg; in series [5] it was greater than 1000 mg/kg. In series [8], this compound returned an IC50 of 7 µM.

Turning to `COc1ccc2[nH]c([S+]([O-])Cc3ncc(C)c(OC)c3C)nc2c1` (stereo not shown) [Omeprazole, reference compound], the results for the ED50 in series [6] (setting [9]) and in series [7] (1 cm^3 abs. ethanol) were 3.9 mg/kg and 4.5 mg/kg, respectively. For the same compound, in series [7] (p.o.), the “Ratio of acid-secretion inhibition and erosion inhibition” value is reported as 0.9.

Turning to `CN1CCN(CC(=O)N2c3ccccc3C(=O)Nc3cccnc32)CC1` [Pirenzepine, reference compound], the results for the ED50 in series [6] (setting [9]) and in series [7] (1 cm^3 abs. ethanol) were 7.9 mg/kg and 18.6 mg/kg, respectively. In addition, the “Ratio of acid-secretion inhibition and erosion inhibition” value in series [7] (p.o.) turned out to be 0.4.

Sucralfate [reference compound]: the “Ethanol erosion ED50” value in series [7] (p.o., 1 cm^3 abs. ethanol) came to 69.0.
